Data set [1] in a line: Pharmacokinetics in patients with stable HFrEF. It counts as in vivo. To be noted: human, oral. The procedure:
In the single-ascending dose trial, single fasting doses of Compound I 175-550 mg or placebo were evaluated in a crossover manner in 12 patients over two sequential cohorts (1 and 2), with intervals between singles doses ranging from 3 days (subsequently amended to 5) to 14 days. In Cohort 1, eight patients were enrolled and all received placebo and Compound I 175 mg and 350 mg (in random sequence and in a blinded fashion) during three periods, A-C. Six patients elected to continue into a fourth optional open label period D. Compound I doses administered in the open-label period included: 350 mg (n=1); 450 mg (divided into two administrations; n=1); 525 mg (n=2); and 550 mg (divided into two administrations; n=2). In Cohort 2, four patients were enrolled, and all received placebo and Compound I 400 mg and 500 mg in random sequence (both active 400 mg and 500 mg doses were divided into two administrations).
For each treatment period, pre-dose assessments followed by administration of single dose were performed on Day 1 in the morning. The patient underwent serial pharmacokinetic (PK), pharmacodynamic (PD [trans-thoracic echocardiography or TTE]), ECG and safety laboratory assessments through Day 1 (until the evening) as well as on Day 2. Patients were discharged on Day 3 morning and returned to the clinic on Day 4 for a final PK assessment, and evaluation of adverse events (AEs). […]

The target in data set [2] is left atrial (LA) myofibrils (Sus scrofa, UniProt K7GMH0). Description: Steady-state ATPase (ATP turnover rate), LA myofibrils. It counts as biochemical, Yucatan mini-pig. As to the method:
The ability of Compound I to increase myocardial ATP turnover rates selectively was evaluated using both left atrial (LA) and left ventricular (LV) myofibrils prepared from Yucatan mini-pig hearts, as well as subfragment-1 (51) myosins from cardiac (recombinant human), skeletal (rabbit psoas) and smooth (chicken gizzard) muscles. Pig hearts were harvested, and the left atria/ventricles were freshly excised, dissected, frozen in liquid nitrogen and stored at −80° C. […] This enzyme system couples the formation of ADP to the oxidation of NADH leading to an absorbance change at 340 nm. […] All measurements were carried out at 25° C. using a plate reader (SpectraMax; Molecular Devices, LLC, CA, USA) to monitor the change in absorbance as a function of time; data were normalized to a per-second scale as described in Green et al., Science (2016) 351(6273):617-21. […]

In data set [3] the target is T1, left ventricular (LV) myofibrils (Sus scrofa, UniProt P79293).
T1 construct: from tissue; host or cells: left ventricle of Yucatan mini-pig heart
The experiment in a line: Steady-state ATPase (ATP turnover rate), LV myofibrils. It counts as biochemical, Yucatan mini-pig. As to the method: The ability of Compound I to increase myocardial ATP turnover rates selectively was evaluated using both left atrial (LA) and left ventricular (LV) myofibrils prepared from Yucatan mini-pig hearts, as well as subfragment-1 (51) myosins from cardiac (recombinant human), skeletal (rabbit psoas) and smooth (chicken gizzard) muscles. Pig hearts were harvested, and the left atria/ventricles were freshly excised, dissected, frozen in liquid nitrogen and stored at −80° C. Myofibrils and S1 myosins were prepared as described in Kawas et al., J Biol Chem. (2017) 292(40:16571-7. Both atrial (n=4 hearts, 2 replicates each) and ventricular (n=3 hearts, 2 replicates each) myofibrils were assayed at a constant concentration of 1.0 mg/mL (at Ca^2+ sensitivity [pCa] 6.0). Rabbit skeletal (0.2 μM, n=8), chicken gizzard (0.5 n=10) and recombinant human cardiac (0.5 n=10) S1 myosin were assayed with a constant concentration of actin (14 μM).
Steady-state ATPase measurements at varying concentrations of Compound I (0-50 μM, in 2% DMSO) were conducted using a coupled enzyme system utilizing pyruvate kinase and lactate dehydrogenase. This enzyme system couples the formation of ADP to the oxidation of NADH leading to an absorbance change at 340 nm. The buffering system used in all experiments was 12 mM PIPES, 2 mM MgCl2 and 1 mM dithiothreitol (DTT) at pH 6.8 (PM12 buffer). All measurements were carried out at 25° C. using a plate reader (SpectraMax; Molecular Devices, LLC, CA, USA) to monitor the change in absorbance as a function of time; data were normalized to a per-second scale as described in Green et al., Science (2016) 351(6273):617-21. Data are presented as means (standard deviation [SD]) in text or as mean±standard error of the mean (SEM) in figures; half maximal effective concentration (EC50) values (and 95% confidence intervals [CIs]) were calculated using a four-parameter-fit model (GraphPad Prism, GraphPad Software Inc., CA, USA).

Results on 1 molecule are retold here after US20230233545A1, “TREATMENT OF ATRIAL DYSFUNCTION” (MyoKardia, Inc., priority 2020, published 2023).

The half-life is how long it takes for the measured level to halve. A low value points to fast loss.

T1 sequence (P79293 whole entry): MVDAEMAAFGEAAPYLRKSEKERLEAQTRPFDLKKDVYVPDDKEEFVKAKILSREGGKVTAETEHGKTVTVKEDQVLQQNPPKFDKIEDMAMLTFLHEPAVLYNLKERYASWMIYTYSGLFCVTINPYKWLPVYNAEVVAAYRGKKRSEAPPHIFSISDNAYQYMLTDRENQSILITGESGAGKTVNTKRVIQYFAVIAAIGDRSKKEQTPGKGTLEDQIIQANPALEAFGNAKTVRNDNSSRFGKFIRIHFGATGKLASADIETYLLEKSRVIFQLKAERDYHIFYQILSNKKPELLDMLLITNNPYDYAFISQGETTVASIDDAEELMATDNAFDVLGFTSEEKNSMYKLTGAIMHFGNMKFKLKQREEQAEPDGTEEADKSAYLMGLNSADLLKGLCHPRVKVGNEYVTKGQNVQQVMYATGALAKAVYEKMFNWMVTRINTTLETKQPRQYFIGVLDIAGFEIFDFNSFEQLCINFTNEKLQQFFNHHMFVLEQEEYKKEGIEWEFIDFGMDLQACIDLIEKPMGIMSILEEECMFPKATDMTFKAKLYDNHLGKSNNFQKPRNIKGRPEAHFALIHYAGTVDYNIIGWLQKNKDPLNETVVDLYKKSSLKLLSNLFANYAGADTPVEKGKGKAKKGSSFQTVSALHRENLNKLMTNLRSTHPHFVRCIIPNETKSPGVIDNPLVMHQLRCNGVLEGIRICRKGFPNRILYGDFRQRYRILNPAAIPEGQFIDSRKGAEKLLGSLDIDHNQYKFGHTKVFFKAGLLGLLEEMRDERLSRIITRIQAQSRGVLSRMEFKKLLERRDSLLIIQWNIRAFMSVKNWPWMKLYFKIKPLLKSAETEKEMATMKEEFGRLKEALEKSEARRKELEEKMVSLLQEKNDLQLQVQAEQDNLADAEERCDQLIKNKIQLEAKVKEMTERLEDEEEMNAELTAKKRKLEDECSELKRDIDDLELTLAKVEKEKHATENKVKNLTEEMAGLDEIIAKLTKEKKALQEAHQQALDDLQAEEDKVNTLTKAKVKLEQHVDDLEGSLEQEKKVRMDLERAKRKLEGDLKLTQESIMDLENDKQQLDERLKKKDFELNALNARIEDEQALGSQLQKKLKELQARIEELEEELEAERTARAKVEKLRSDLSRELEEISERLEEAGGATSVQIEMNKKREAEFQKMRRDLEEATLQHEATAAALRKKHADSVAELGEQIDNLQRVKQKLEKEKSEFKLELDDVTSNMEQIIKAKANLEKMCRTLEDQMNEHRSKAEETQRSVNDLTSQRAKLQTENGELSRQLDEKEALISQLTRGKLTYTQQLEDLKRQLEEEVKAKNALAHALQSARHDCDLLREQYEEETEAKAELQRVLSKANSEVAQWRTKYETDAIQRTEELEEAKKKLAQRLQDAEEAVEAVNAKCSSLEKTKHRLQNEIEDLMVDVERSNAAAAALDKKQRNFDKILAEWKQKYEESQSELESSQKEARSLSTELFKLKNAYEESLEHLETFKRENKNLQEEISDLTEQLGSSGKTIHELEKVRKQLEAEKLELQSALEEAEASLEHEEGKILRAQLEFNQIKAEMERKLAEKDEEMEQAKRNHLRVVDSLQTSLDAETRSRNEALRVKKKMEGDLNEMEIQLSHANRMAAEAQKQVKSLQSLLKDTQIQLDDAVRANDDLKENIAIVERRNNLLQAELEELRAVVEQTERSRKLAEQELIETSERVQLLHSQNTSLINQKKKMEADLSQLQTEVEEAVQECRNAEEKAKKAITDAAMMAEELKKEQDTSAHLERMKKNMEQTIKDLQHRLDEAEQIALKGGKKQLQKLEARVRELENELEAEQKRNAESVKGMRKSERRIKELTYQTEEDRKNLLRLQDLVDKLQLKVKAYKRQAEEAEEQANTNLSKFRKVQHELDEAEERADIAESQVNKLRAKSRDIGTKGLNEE
left atrial (LA) myofibrils, sequence (F1SSF9 2-175): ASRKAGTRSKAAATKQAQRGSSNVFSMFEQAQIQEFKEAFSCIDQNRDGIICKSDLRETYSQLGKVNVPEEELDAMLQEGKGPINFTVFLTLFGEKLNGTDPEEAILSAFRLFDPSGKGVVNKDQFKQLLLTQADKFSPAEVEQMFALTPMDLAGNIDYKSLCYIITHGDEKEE
left atrial (LA) myofibrils, sequence (K7GMH0 entry or part of it): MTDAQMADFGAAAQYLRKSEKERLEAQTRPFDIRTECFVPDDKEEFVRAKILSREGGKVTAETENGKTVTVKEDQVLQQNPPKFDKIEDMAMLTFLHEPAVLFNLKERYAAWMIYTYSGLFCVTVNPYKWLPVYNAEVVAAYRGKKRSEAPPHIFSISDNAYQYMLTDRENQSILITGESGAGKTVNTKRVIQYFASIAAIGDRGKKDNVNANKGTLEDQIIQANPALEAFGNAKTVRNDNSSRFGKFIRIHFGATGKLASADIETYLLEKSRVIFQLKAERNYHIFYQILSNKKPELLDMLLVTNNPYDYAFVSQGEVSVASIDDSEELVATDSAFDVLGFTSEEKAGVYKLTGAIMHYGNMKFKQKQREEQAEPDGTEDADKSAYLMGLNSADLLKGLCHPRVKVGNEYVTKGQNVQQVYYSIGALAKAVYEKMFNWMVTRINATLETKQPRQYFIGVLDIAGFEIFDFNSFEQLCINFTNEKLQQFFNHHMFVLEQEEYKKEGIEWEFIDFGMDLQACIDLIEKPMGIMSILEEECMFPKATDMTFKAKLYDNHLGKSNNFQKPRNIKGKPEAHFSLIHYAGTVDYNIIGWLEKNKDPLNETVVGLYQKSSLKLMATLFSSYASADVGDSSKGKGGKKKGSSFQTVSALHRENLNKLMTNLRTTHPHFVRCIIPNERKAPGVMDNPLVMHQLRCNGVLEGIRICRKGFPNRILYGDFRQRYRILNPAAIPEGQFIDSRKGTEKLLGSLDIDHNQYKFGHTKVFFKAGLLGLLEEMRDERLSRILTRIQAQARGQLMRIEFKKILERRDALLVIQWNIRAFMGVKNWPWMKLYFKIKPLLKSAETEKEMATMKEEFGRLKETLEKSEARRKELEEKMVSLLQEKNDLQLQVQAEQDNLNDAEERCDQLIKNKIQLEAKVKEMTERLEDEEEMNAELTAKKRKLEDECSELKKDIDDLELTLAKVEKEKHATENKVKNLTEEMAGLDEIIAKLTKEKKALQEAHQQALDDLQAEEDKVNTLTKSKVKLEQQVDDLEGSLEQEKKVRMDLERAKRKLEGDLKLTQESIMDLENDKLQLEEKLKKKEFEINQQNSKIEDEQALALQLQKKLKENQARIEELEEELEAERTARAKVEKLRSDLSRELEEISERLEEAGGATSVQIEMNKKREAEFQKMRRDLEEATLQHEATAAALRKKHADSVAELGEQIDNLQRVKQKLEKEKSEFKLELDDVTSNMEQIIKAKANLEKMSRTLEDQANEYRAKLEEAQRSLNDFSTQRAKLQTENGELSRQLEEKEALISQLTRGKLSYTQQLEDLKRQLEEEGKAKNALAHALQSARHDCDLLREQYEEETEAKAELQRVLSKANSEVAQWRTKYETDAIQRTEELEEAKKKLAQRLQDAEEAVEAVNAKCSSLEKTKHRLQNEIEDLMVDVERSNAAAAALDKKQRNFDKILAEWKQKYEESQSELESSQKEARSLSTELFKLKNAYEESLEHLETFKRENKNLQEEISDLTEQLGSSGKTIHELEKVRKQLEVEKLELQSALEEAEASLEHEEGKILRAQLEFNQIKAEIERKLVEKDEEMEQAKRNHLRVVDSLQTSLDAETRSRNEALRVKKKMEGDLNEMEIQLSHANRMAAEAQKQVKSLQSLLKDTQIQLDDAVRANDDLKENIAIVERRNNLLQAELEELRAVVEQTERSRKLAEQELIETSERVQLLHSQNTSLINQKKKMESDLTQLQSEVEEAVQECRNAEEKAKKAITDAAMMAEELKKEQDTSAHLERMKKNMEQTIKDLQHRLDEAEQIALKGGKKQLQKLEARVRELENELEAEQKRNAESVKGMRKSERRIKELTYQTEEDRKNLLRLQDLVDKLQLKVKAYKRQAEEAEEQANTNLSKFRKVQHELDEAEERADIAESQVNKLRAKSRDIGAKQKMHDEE
left atrial (LA) myofibrils, sequence (F1RRT2 2-197, further chain): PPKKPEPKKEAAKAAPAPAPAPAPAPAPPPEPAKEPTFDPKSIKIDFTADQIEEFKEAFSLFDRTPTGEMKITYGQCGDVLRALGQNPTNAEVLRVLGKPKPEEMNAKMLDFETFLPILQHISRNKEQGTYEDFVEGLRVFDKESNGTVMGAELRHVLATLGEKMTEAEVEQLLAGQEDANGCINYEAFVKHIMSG

`Cn1cc(S(=O)(=O)[C@@](C)(F)C2CCN(C(=O)Nc3ccon3)CC2)c(C(F)F)n1` [Compound I, (R)-4-(1-((3-(difluoromethyl)-1-methyl-1H-pyrazol-4-yl)sulfonyl)-1-fluoroethyl)-N-(isoxazol-3-yl)piperidine-1-carboxamide] returned a half-life in data set [1] (in vivo, patients that received Compound I as part of Cohort 1 (single doses)) of 20 to 25 h. Moreover, in data set [1] (plasma, 50 mg BID, with food, read-out: steady-state concentration), the concentration at 7 days is 2000 to 3500 ng/mL. Also, the activation at 3 µM in data set [2] (at 3 μM, read-out: increase in ATPase, LA porcine myofibrils) was 56%. For the same molecule, the fold induction at 50 µM in data set [2] (at 50 μM, SD ±0.3, read-out: increase in ATPase turnover rate, atrial myofibrils) was determined as 2.3. Moreover, the “increase in ATPase, LV porcine myofibrils” value in data set [3] (at 3 μM) worked out at 85%. Also, the “increase in ATPase turnover rate, ventricular myofibrils” value in data set [3] (at 50 μM, SD ±0.3) is recorded as 3.0 fold. Also, the AC50 in data set [3] (pCa 6.0, 25° C., 95% CI 3.7-27.5, read-out: half maximal active concentration [AC50], ATPase turnover rate, ventricular myofibrils) came out at 6 µM.
